Measured values taken from patent publication US20110213021A1, “COMPOSITIONS AND METHODS FOR TREATING NOS-ASSOCIATED DISEASES” (Indigene Pharmaceuticals, Inc., priority 2008, published 2011).

Experiments:
inducible NOS = biological target: T1, inducible NOS (Mus musculus, UniProt P29477); experiment: inducible NOS activity assay (formation of nitrite from arginine, Griess reagent); type: biochemical
T1 construct: using an enzyme isolated from LPS-+INFγ-treated mouse macrophages; endogenous in cells; host or cells: LPS + IFN-gamma-treated mouse macrophages (enzyme isolated from the cells)
Procedure: First, an inducible NOS activity assay was performed on the recrystallized salt of Example 2. This assay measures the formation of nitrite from arginine using an enzyme isolated from LPS-+INFγ-treated mouse macrophages. In this assay, the test salt (as a 10-fold concentrated solution in H2O), reference compound or water (control) are incubated for 180 min at 37° C. with the enzyme (0.5 U) in a buffer containing 40 mM Tris-HCl (pH 8.0), 0.5 mM NADPH, 4 μM FAD, 12 μM BH4, 3 mM DTT and 0.1 mM L-arginine. For basal control measurements, the enzyme is omitted from the incubation medium. Following incubation, Griess reagent containing 0.05% naphtylene diamine, 0.5% sulfanilamide and 2.5% orthophosphoric acid is added and the samples are incubated for 10 min at 22° C. The amount of nitrite produced is then quantified with a microplate reader (Spectrafluorplus, Tecan) by measuring the absorbance at λ=550 nm. The results are expressed as IC50 in M. This assay may be performed using the standard inhibitory reference compound, I400 W, which may be tested in each experiment at several concentrations to obtain an inhibition curve from which its IC50 value is calculated. Further information regarding this protocol may be found in Tayeh and Marletta (1989), Macrophage oxidation of L-arginine to nitric oxide, nitrite, and nitrate, J. Biol. Chem., 264: 19654.

human HL-60 cells = experiment: superoxide O2- secretion from PMA-stimulated HL-60 cells (cytochrome C reduction); type: cell-based; settings: 0.25 h, 30 nM PMA-stimulated HL-60 cells, 15 min at 37° C.
Procedure: In addition, the effect on superoxide O2 secretion was measured. This assay quantifies the secretion of superoxide O2^− from phorbol 12-mysirate 13-acetate (PMA)-stimulated human HL-60 cells, by the measurement of cytochrome C reduction. The test salt (as a 10-fold concentrated solution in H2O), reference compound or water (control) are pre-incubated for 15 min at 37° C. with HL-60 cells (5×10^5 cells) suspended in a buffer containing 137 mM NaCl, 2.68 mM KCl, 0.9 mM CaCl2, 0.5 mM MgCl2, 8.1 mM Na2HPO4, 1.47 mM KH2PO4 (pH 7.4 ) and 19 μM cytochrome C. The absorbance is then measured at λ=550 nm using a spectrophotometer to detect any compound interference with the photometric detection at this wavelength. Thereafter, the reaction is initiated by the addition of 30 nM PMA and the mixture is incubated for 15 min at 37° C. in the dark. For basal control measurements, the incubation medium also contains 275 U/ml superoxyde dismutase (SOD) to catalyze the destruction of superoxide O2^−. […] The absorbance is then measured at λ=550 nm and the activity is determined by subtracting signal measured in the presence of SOD from that measured in its absence. This assay may be performed using the standard inhibitory reference compound, diphenyleneiodonium, which may be tested in each experiment at several concentrations to obtain an inhibition curve from which its IC50 value is calculated. […]

rat liver microsomes = experiment: lipid peroxidation: ascorbic acid-induced production of malonaldehyde in liver microsomes; type: biochemical; settings: 0.1 mM ascorbic acid, 20 min at 37° C.
Procedure: Furthermore, the effect on lipid peroxidation quantified by the measurement of ascorbic acid-induced production of malonaldehyde in rat liver microsomes. Specifically, homogenates of liver microsomes (150 μg) are pre-incubated for 5 min at 37° C. with the test salt (as a 10-fold concentrated solution in H2O), reference compound or water (control) in a buffer containing 300 mM NaCl, 0.1 mM FeCl3 and 8 mM NaH2PO4/Na2HPO4 (pH 7.4). Thereafter, the reaction is initiated by the addition of 0.1 mM ascorbic acid and the mixture is incubated for 20 min at 37° C. For basal control measurements, ascorbic acid is omitted from the incubation medium. These measurements are also used to detect any compound interference with the photometric detection at the selected wavelength. Following incubation, the reaction is stopped by the addition of 5 mM EDTA/NaOH. […] The amount of lipid peroxides present in the supernatant is quantified by measuring the absorbance at λ=532 nm using a spectrophotometer. This assay may be performed using the standard inhibitory reference compound N-propyl gallate, which may be tested in each experiment at several concentrations to obtain an inhibition curve from which its IC50 value is calculated. […]

IC50 (inducible NOS; enzyme isolated from LPS-+INFγ-treated mouse macrophages, 180 min at 37° C., 0.1 mM L-arginine): 37 µM
nH, inducible NOS activity (inducible NOS; same inhibition curve as the IC50): 0.9
IC50 (human HL-60 cells): 310 µM
IC50 (rat liver microsomes): 1800 µM
Compound: CC(C)=NN=C(N)N
